SMILES strings stand for the structures.

The text below walks through data of patent publication US12559529B2, “NPY2 receptor agonists” (Boehringer Ingelheim International GmbH, priority 2019, dated 2026).

One experiment relates to normal NMRI mice. The experiment can be described thus: Effect on acute food intake in normal NMRI mice. The settings on record: male NMRI mice, 10 nmol/kg subcutaneously once. In kind it is in vivo. As to the method: Male NMRI mice were obtained from Charles River (Charles River, Research Models & Services Germany GmbH) or from Jan Vier (Jan Vier Labs, France) at 5 weeks of age. […] Room temperature was controlled to 21° C.±1° C., with 60%+20% humidity.
Animals were transferred 5-7 days before the start of the study to a real-time food intake monitoring system, HM-2 system (MBRose, Denmark), to allow acclimatization to experimental conditions. As the animals were uniquely identified with microchips, each individual animal was identified by its microchip upon entry and exit from the food channel. Randomization of the mice for each study group (n=7-8) was based on body weight measured the day before the start of the study. A vehicle-treated (50 mM phosphate buffer pH7 with 5% Mannitol) group was included in each experiment. Six hours before the start of the night phase animals were fasted. One hour before the dark phase animals were dosed once subcutaneously (10 nmol/kg) with test peptide. […] The food intake of the treated groups was normalized (in %) to the average food intake of the group receiving vehicle (Table 7). Statistical significance was evaluated using One-way analysis of variance with Turkey's multiple comparison test. P<0.05 was considered statistically significant.

The target of experiment [1] is T1, Human Neuropeptide Y2 Receptor (Homo sapiens, UniProt P49146).
T1 construct: purchased CHEMICON HTS066M
T1 sequence (P49146 1-381): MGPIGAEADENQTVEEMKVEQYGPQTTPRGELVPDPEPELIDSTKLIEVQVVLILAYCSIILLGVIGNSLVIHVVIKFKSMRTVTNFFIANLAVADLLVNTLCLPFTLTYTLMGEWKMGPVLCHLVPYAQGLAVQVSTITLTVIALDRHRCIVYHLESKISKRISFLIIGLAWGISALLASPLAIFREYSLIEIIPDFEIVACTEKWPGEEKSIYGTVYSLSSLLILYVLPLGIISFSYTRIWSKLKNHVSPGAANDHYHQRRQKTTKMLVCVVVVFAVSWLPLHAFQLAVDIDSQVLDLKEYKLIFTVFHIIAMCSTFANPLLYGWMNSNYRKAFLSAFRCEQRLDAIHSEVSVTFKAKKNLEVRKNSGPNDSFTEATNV
The experiment can be described thus: Radioligand binding competition assay (RLB). The settings on record: Table 3; human 125I-PYY (1-36) 0.02 nM, Y2 receptor membranes; read-out: Ki. In short, it runs like this: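 Competition binding on human Y2 receptor membranes, 0.5 μg protein/well, in 50 mM HEPES, 5 mM MgCl2, 1 mM CaCl2, pH 7.4, 0.2% ovalbumin; peptides diluted from 1 mM DMSO stocks.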

`CC(C)CC(=O)N[C@@H](C)C(=O)N1CCC[C@H]1C(=O)N[C@@H](CCC(=O)O)C(=O)N[C@@H](CCCCNC(=O)COCCOCCNC(=O)COCCOCCNC(=O)CC[C@H](NC(=O)CCCCCCCCCCCCCCCCC(=O)O)C(=O)O)C(=O)N1CCC[C@H]1C(=O)N[C@@H](CCC(=O)O)C(=O)N[C@@H](CCC(=O)O)C(=O)N[C@@H](CC(=O)O)C(=O)N[C@@H](C)C(=O)N[C@@H](CO)C(=O)N1CCC[C@H]1C(=O)N[C@@H](CCC(=O)O)C(=O)N[C@@H](CCC(=O)O)C(=O)N[C@H](C(=O)N[C@@H](CCC(N)=O)C(=O)N[C@@H](CCCNC(=N)N)C(=O)N[C@@H](Cc1ccc(O)cc1)C(=O)N[C@@H](Cc1ccc(O)cc1)C(=O)N[C@H](C(=O)N[C@H](C(=O)N[C@@H](CC(C)C)C(=O)N[C@@H](CCCNC(=N)N)C(=O)N[C@@H](Cc1c[nH]cn1)C(=O)N[C@@H](Cc1ccc(O)cc1)C(=O)N[C@@H](Cc1ccc(O)cc1)C(=O)N[C@@H](CC(N)=O)C(=O)N[C@@H](Cc1c[nH]c2ccccc12)C(=O)N[C@@H](CC(C)C)C(=O)N[C@H](C(=O)N[C@@H](CCCNC(=N)N)C(=O)N[C@@H](CCC(N)=O)C(=O)N[C@@H](CCCNC(=N)N)C(=O)N[C@@H](Cc1ccc(O)cc1)C(N)=O)[C@@H](C)O)[C@@H](C)O)C(C)C)[C@@H](C)O` [Compound 16, N{alpha-4}-(3-methylbutanoyl)-N{epsilon-7}-[2-(2-{2-[2-(2-{2-[(4S)-4-carboxy-4-(17-carboxyheptadecanamido)butanamido]ethoxy}ethoxy)acetamido]ethoxy}ethoxy)acetamido]-[4A,7K,9E,17T,18Q,22V,23T,28Y,30W,31L]hPYY (4-36)]: the “Acute Food Intake 24 h [% vehicle]” value with normal NMRI mice came to 67 % vehicle. For the same molecule, the inhibition constant (Ki) in experiment [1] turned out to be 3.09 nM.

For the molecule `CC(C)CC(=O)N[C@@H](C)C(=O)N1CCC[C@H]1C(=O)N[C@@H](CCC(=O)O)C(=O)N[C@@H](CCCCNC(=O)COCCOCCNC(=O)COCCOCCNC(=O)CC[C@H](NC(=O)CCCCCCCCCCCCCCCCC(=O)O)C(=O)O)C(=O)N1CCC[C@H]1C(=O)N[C@@H](CCC(=O)O)C(=O)N[C@@H](CCC(=O)O)C(=O)N[C@@H](CC(=O)O)C(=O)N[C@@H](C)C(=O)N[C@@H](CO)C(=O)N1CCC[C@H]1C(=O)N[C@@H](CCC(=O)O)C(=O)N[C@@H](CCC(=O)O)C(=O)N[C@@H](CC(C)C)C(=O)N[C@@H](CCC(N)=O)C(=O)N[C@@H](CCCCN)C(=O)N[C@@H](Cc1ccc(O)cc1)C(=O)N[C@@H](Cc1ccc(O)cc1)C(=O)N[C@H](C(=O)N[C@@H](CO)C(=O)N[C@@H](CC(C)C)C(=O)N[C@@H](CCCNC(=N)N)C(=O)N[C@@H](Cc1c[nH]cn1)C(=O)N[C@@H](Cc1ccc(O)cc1)C(=O)N[C@@H](Cc1ccc(O)cc1)C(=O)N[C@@H](CC(N)=O)C(=O)N[C@@H](Cc1c[nH]c2ccccc12)C(=O)N[C@@H](CC(C)C)C(=O)N[C@H](C(=O)N[C@@H](CCCNC(=N)N)C(=O)N[C@@H](CCC(N)=O)C(=O)N[C@@H](CCCNC(=N)N)C(=O)N[C@@H](Cc1ccc(O)cc1)C(N)=O)[C@@H](C)O)C(C)C` [Compound 21, N{alpha-4}-(3-methylbutanoyl)-N{epsilon-7}-[2-(2-{2-[2-(2-{2-[(4S)-4-carboxy-4-(17-carboxyheptadecanamido)butanamido]ethoxy}ethoxy)acetamido]ethoxy}ethoxy)acetamido]-[4A,7K,9E,18Q,19K,22V,28Y,30W,31L]hPYY (4-36)], the “Acute Food Intake 24 h [% vehicle]” value in the experiment on normal NMRI mice is reported as 89 % vehicle. For the same molecule, the Ki in experiment [1] was 1.52 nM.

Turning to `CC(C)CC(=O)N[C@@H](C)C(=O)N1CCC[C@H]1C(=O)N[C@@H](CCC(=O)O)C(=O)N[C@@H](CCCCNC(=O)COCCOCCNC(=O)COCCOCCNC(=O)CC[C@H](NC(=O)CCCCCCCCCCCCCCCCC(=O)O)C(=O)O)C(=O)N1CCC[C@H]1C(=O)N[C@@H](CCC(=O)O)C(=O)N[C@@H](CCC(=O)O)C(=O)N1CCC[C@H]1C(=O)N[C@@H](C)C(=O)N[C@@H](CO)C(=O)N1CCC[C@H]1C(=O)N[C@@H](CCC(=O)O)C(=O)N[C@@H](CCC(=O)O)C(=O)N[C@@H](CC(C)C)C(=O)N[C@@H](CCC(N)=O)C(=O)N[C@@H](CCCNC(=N)N)C(=O)N[C@@H](Cc1ccc(O)cc1)C(=O)N[C@@H](Cc1ccc(O)cc1)C(=O)N[C@H](C(=O)N[C@@H](CCC(=O)O)C(=O)N[C@@H](CC(C)C)C(=O)N[C@@H](CCCNC(=N)N)C(=O)N[C@@H](Cc1c[nH]cn1)C(=O)N[C@@H](Cc1ccc(O)cc1)C(=O)N[C@@H](Cc1ccc(O)cc1)C(=O)N[C@@H](CC(N)=O)C(=O)N[C@@H](Cc1c[nH]c2ccccc12)C(=O)N[C@@H](CC(C)C)C(=O)N[C@H](C(=O)N[C@@H](CCCNC(=N)N)C(=O)N[C@@H](CCC(N)=O)C(=O)N[C@@H](CCCNC(=N)N)C(=O)N[C@@H](Cc1ccc(O)cc1)C(N)=O)[C@@H](C)O)C(C)C` [Compound 33, N{alpha-4}-(3-methylbutanoyl)-N{epsilon-7}-[2-(2-{2-[2-(2-{2-[(4S)-4-carboxy-4-(17-carboxyheptadecanamido)butanamido]ethoxy}ethoxy)acetamido]ethoxy}ethoxy)acetamido]-[4A,7K,9E,11P,18Q,22V,23E,28Y,30W,31L]hPYY (4-36)], in the experiment on normal NMRI mice, the “Acute Food Intake 24 h [% vehicle]” value stood at 54 % vehicle. Also, the Ki in experiment [1] was 0.45 nM.

In the case of `CC(C)CC(=O)N[C@@H](C)C(=O)N1CCC[C@H]1C(=O)N[C@@H](CCC(=O)O)C(=O)N[C@@H](CCCCNC(=O)COCCOCCNC(=O)COCCOCCNC(=O)CC[C@H](NC(=O)CCCCCCCCCCCCCCCCC(=O)O)C(=O)O)C(=O)N1CCC[C@H]1C(=O)N[C@@H](CCC(=O)O)C(=O)N[C@@H](CCC(=O)O)C(=O)N[C@@H](CC(=O)O)C(=O)N[C@@H](C)C(=O)N[C@@H](CO)C(=O)N1CCC[C@H]1C(=O)N[C@@H](CCC(=O)O)C(=O)N[C@@H](CCC(=O)O)C(=O)N[C@@H](CC(C)C)C(=O)N[C@@H](CCC(N)=O)C(=O)N[C@@H](CCC(N)=O)C(=O)N[C@@H](Cc1ccc(O)cc1)C(=O)N[C@@H](Cc1ccc(O)cc1)C(=O)N[C@H](C(=O)N[C@@H](CCC(=O)O)C(=O)N[C@@H](CC(C)C)C(=O)N[C@@H](CCCNC(=N)N)C(=O)N[C@@H](Cc1c[nH]cn1)C(=O)N[C@@H](Cc1ccc(O)cc1)C(=O)N[C@@H](Cc1ccc(O)cc1)C(=O)N[C@@H](CC(N)=O)C(=O)N[C@@H](Cc1c[nH]c2ccccc12)C(=O)N[C@@H](CC(C)C)C(=O)N[C@H](C(=O)N[C@@H](CCCNC(=N)N)C(=O)N[C@@H](CCC(N)=O)C(=O)N[C@@H](CCCNC(=N)N)C(=O)N[C@@H](Cc1ccc(O)cc1)C(N)=O)[C@@H](C)O)C(C)C` [Compound 49, N{alpha-4}-(3-methylbutanoyl)-N{epsilon-7}-[2-(2-{2-[2-(2-{2-[(4S)-4-carboxy-4-(17-carboxyheptadecanamido)butanamido]ethoxy}ethoxy)acetamido]ethoxy}ethoxy)acetamido]-[4A,7K,9E,18Q,19Q,22V,23E,28Y,30W,31L]hPYY (4-36)], in the experiment with normal NMRI mice, the “Acute Food Intake 24 h [% vehicle]” value is 60 % vehicle. The Ki in experiment [1] stood at 0.89 nM.

Turning to `CC(C)CC(=O)N[C@@H](C)C(=O)N1CCC[C@H]1C(=O)N[C@@H](CCC(=O)O)C(=O)N[C@@H](CCCCNC(=O)COCCOCCNC(=O)COCCOCCNC(=O)CC[C@H](NC(=O)CCCCCCCCCCCCCCCCC(=O)O)C(=O)O)C(=O)N1CCC[C@H]1C(=O)N[C@@H](CCC(=O)O)C(=O)N[C@@H](C)C(=O)N[C@@H](CC(=O)O)C(=O)N[C@@H](C)C(=O)N[C@@H](CCC(=O)O)C(=O)N1CCC[C@H]1C(=O)N[C@@H](CCC(=O)O)C(=O)N[C@@H](CCC(=O)O)C(=O)N[C@@H](CC(C)C)C(=O)N[C@@H](CCC(N)=O)C(=O)N[C@@H](CCCNC(=N)N)C(=O)N[C@@H](Cc1ccc(O)cc1)C(=O)N[C@@H](Cc1ccc(O)cc1)C(=O)N[C@H](C(=O)N[C@@H](CO)C(=O)N[C@@H](CC(C)C)C(=O)N[C@@H](CCCNC(=N)N)C(=O)N[C@@H](Cc1c[nH]cn1)C(=O)N[C@@H](Cc1ccc(O)cc1)C(=O)N[C@@H](Cc1ccc(O)cc1)C(=O)N[C@@H](CC(N)=O)C(=O)N[C@@H](Cc1c[nH]c2ccccc12)C(=O)N[C@@H](CC(C)C)C(=O)N[C@H](C(=O)N[C@@H](CCCNC(=N)N)C(=O)N[C@@H](CCC(N)=O)C(=O)N[C@@H](CCCNC(=N)N)C(=O)N[C@@H](Cc1ccc(O)cc1)C(N)=O)[C@@H](C)O)C(C)C` [Compound 56, N{alpha-4}-(3-methylbutanoyl)-N{epsilon-7}-[2-(2-{2-[2-(2-{2-[(4S)-4-carboxy-4-(17-carboxyheptadecanamido)butanamido]ethoxy}ethoxy)acetamido]ethoxy}ethoxy)acetamido]-[4A,7K,9E,10A,13E,18Q,22V,28Y,30W,31L]hPYY (4-36)], the “Acute Food Intake 24 h [% vehicle]” value in the experiment with normal NMRI mice was determined as 53 % vehicle. In addition, the Ki in experiment [1] was 1.26 nM.
